{
  "source": "patent US6046231A",
  "about": "“Use of 4'-bromoflavone in a cancer chemopreventative composition and method” (The Board of Trustees of the University of Illinois, priority 1999, dated 2000)",
  "key": {"GST Ya (α class)": {"system": "GST Ya (α class)", "test": "Western blot of GST Ya (α-type) expression in H4IIE cells", "type": "cell-based, rat", "conditions": "for GST Ya (α) induction: H4IIE cells", "procedure": "Western Blot Analysis Glutathione S-transferase Expression. Cultured H4IIE rat hepatoma cells were treated with test agent with various concentrations or various time points. […] Cells were harvested using SDS lysis buffer (20 mM Tris-Cl, pH 6.8, containing 0.4% SDS (w/v), 4% glycerol, 0.24 M β-mercaptoethanol, and 0.5% bromphenol) and the lysates were boiled for 5 minutes, then stored at -20° C. An aliquot of lysate was used for protein determination using a bicichoninic acid protein assay kit with BSA as a standard. Equivalent amounts of protein were electrophoresed by SDS-PAGE on precast 12.5% Tris-glycine acrylamide gels (Novex, San Diego, Calif.), then transferred to polyvinylidene difluoride (PDVF) membranes. Nonspecific binding sites were blocked with 10% nonfat dry milk and blotting was performed with goat polyclonal antirat GSTYa (α class) IgG or antirat, GSTYb (μ class) IgG and analyzed by alkaline phosphatase-conjugated antigoat IgG secondary antibody (Oxford Biomed Research, Inc.) and quantified using an AP 20 Alkaline Phosphatase Kit detection system (Oxford Biomed Research, Inc.).\nInduction of Expression of Glutathione S-transferase Ya (α-type) and Yb (μ-type) in Cell Cultures. […] To date, the superfamily of mammalian cytosolic GST isozymes has been defined genetically to consist of four classes; α, μ, π, and θ, which differ in tissue-specificexpression and distribution, as well as substrate specificity. […] Cultured H4IIE cells were treated either with 10 μM of 4'-BF (FIG. 7B) or sulforaphane for 0, 2, 4, 8, 16, 24, and 48 hours for a time-dependent study, or with 0.16, 0.8, 4, 10, 20, and 50 μM of 4'-BF (FIG. 7A) or sulforaphane for 24 hr for a dose-dependent study (FIG. 7A). The expressions of two major detoxification isoforms of GSTs (GST Ya: α-type, and GST Yb: μ-type) mediated by 4'-BF or sulforaphane were investigated in H4EII rat hepatoma cells using Western blotting technique."}, "[1]": {"system": "Salmonella typhimurium strain TM677", "test": "Antimutagenic assay, DMBA-induced mutagenesis", "type": "cell-based", "conditions": "S. typhimurium TM677; listed as 4'-BF", "procedure": "A dose and time dependent induction of two major detoxification isoforms of GST (α form and μ form) mediated by 4'-BF has been studied in H4IIE rat hepatoma cells. In order to determine a possible mechanism of induction, the QR mRNA expression was tested using a RT-PCR technique and the induction patterns using HepG2 cells transfected with QR-chloramphenical acetyltransferase plasmid constructs containing various portions of 5'-region of the QR gene were analyzed. The antimutagenic activity of 4'-BF was tested in an antimutagenic assay against DMBA-induced mutagenesis with Salmonella typhimurium strain TM677. The chemopreventive efficacy of 4'-BF also was evaluated in a DMBA-induced mammary tumor carcinogenesis model in Sprague Dawley rats."}},
  "data": [
    {"compound": "O=c1cc(-c2ccc(Br)cc2)oc2ccccc12", "note": "[4'-Bromoflavone]", "values": [
      {"measurement": "maximum induction time, GST Ya", "setting": "GST Ya (α class); 10 μM, 0-48 h", "result": "16 to 24", "unit": "h"},
      {"measurement": "maximum induction concentration, GST Ya", "setting": "GST Ya (α class); 0.16-50 μM, 24 h", "result": "10 to 20", "unit": "µM"},
      {"measurement": "GST Ya (α) induction", "setting": "GST Ya (α class)", "result": "effectively induced"},
      {"measurement": "GST Ya (α) induction", "setting": "GST Ya (α class); listed as 4'-BF", "result": "induced by 4'-BF in a time, dose-dependent manner"},
      {"measurement": "inhibition of DMBA-induced mutagenesis", "setting": "[1]", "result": "strongly inhibited"}
    ]}
  ]
}
